Measurements published in patent US6703373B1, “Indolopyrrolocarbazole derivatives and antitumor agents” (Banyu Pharmaceutical Co., Ltd., priority 2002, dated 2004).

Legend:
[1] = system: mouse leukemia cells (P388); assay: Growth inhibition activity on mouse leukemia cells (P388); assay type: cell-based; settings: 24 h with compound, Thiazoyl Blue, absorbance 550 nm, read-out: 50% inhibition concentration (IC50, nM) P-388
Experimental: Growth Inhibition Activity on Mouse Leukemia Cells
10 μl of a medium containing a test compound was added, and culture was continued at 37° C. for further 24 hours under 5% CO2. 10 μl of 0.5% Thiazoyl Blue was added to the cultured medium, and incubation was made at 37° C. for 2 hours under 5% CO2 to carry out enzymatic reaction. 20% sodium dodecyl sulfate (SDS) was added to discontinue the reaction, and incubation was carried out at 37° C. for further 4 hours to dissolve the resulting dye, and absorbance at 550 nm was measured and compared with the control group.

[2] = system: human gastric cancer cells (MKN-45); assay: Growth inhibition activity on human gastric cancer cells (MKN-45); assay type: cell-based; settings: MKN-45 cells, 72 h with compound, Sulforhodamine B, absorbance 560 nm; read-out: 50% inhibition concentration (IC50, nM) MKN-45
Experimental: (§1) Growth Inhibition Activity on Human Gastric Cancer Cells, Human Colon Cancer Cells and Human Lung Cancer Cells
(§2) 100 μl of a medium containing a test compound was added, and culture was continued at 37° C. for further 72 hours under 5% CO2. After completion of the culture, 50 μl of 50% trichloroacetic acid was added to the cultured medium, and the mixtures were held at 4° C. for 60 minutes to fix the cells. The cultured medium containing trichloroacetic acid was removed, and the wells were washed with tap water and dried. 50 μl of 0.4% Sulforhodamine B solution was added, and the mixtures were held at room temperature for 30 minutes to dye the cells. The dyeing solutions were removed, and the remaining dyeing solutions were washed away with 1% acetic acid. After complete removal of the acetic acid solution and drying, 200 μl of […] Tris solution was added and the mixtures were mixed well at room temperature for 1 hour or more to extract the dye. Absorbance of each well at 560 nm was measured, and the inhibition proportion in comparison with the group of no addition of any drug was calculated.

[3] = system: human colon cancer cells (DLD-1); assay: Growth inhibition activity on human colon cancer cells (DLD-1); assay type: cell-based; settings: DLD-1 cells, 72 h with compound, Sulforhodamine B, absorbance 560 nm; read-out: 50% inhibition concentration (IC50, nM) DLD-1
Experimental: as §1, §2

[4] = system: human lung cancer cells (PC-13); assay: Growth inhibition activity on human lung cancer cells (PC-13); assay type: cell-based; settings: PC-13 cells, 72 h with compound, Sulforhodamine B, absorbance 560 nm; read-out: 50% inhibition concentration (IC50, nM) PC-13
Experimental: as §1, §2

Human colon cancer LS180 = assay: Antitumor effect on human colon cancer (LS180) solid tumor implanted in mice; assay type: in vivo, mouse; settings: total dose to inhibit tumor growth by 75%; s.c. implanted tumor in mice, tail vein injection, 5/w×2 or 2/w×2, measured 28 after start
Experimental: (§3) Antitumor Effect on Human Gastric Cancer (MKN-45), Human Breast Cancer (MX-1) and Human Colon Cancer (LS180)
(§4) A MKN-45, MX-1 or LS180 solid tumor previously subcutaneously implanted in a nude mouse and grown was thinly cut, and its cubes with each side 3 mm were subcutaneously implanted in test mice. After the implantation, starting from the time when the tumor grew into 0.3 cm^3 or more, various dosages of a test compound were injected once a day for 5 consecutive days into the tail veins of the mice. The same injections were then made for further 5 days after 2 days of interval (treatment schedule: 5/w×2) or once every 3-4 days, four times in total (treatment schedule: 2/w×2). 28 after the start of the treatment, the length (L) and the breadth (W) of each of the tumors were measured, and its volume (V) was calculated (V=½×L×W^2).

Human breast cancer MX-1 = assay: Antitumor effect on human breast cancer (MX-1) solid tumor implanted in mice; assay type: in vivo, mouse; settings: total dose to inhibit tumor growth by 75%; s.c. implanted tumor in mice, tail vein injection, 5/w×2 or 2/w×2, measured 28 after start
Experimental: as §3, §4

[5] = system: Human gastric cancer MKN-45; assay: Antitumor effect on human gastric cancer (MKN-45) solid tumor implanted in mice; assay type: in vivo, mouse; settings: total dose to inhibit tumor growth by 75%; s.c. implanted tumor in mice, tail vein injection, 5/w×2 or 2/w×2, measured 28 after start
Experimental: as §3, §4

Row | SMILES | IC50 [1] [nM] | IC50 [2] [nM] | IC50 [3] [nM] | IC50 [4] [nM] | GID75 (mg/m^2 total) Human colic cancer LS180 (Human colon cancer LS180) [mg/m^2] | GID75 (mg/m^2 total) Human breast cancer MX-1 (Human breast cancer MX-1) [mg/m^2] | GID75 (mg/m^2 total) Human gastric cancer MKN-45 [5] [mg/m^2]
1 | O=C1c2c(c3c4cccc(O)c4n(C4OC(CO)C(O)C(O)C4O)c3c3[nH]c4c(O)cccc4c23)C(=O)N1NCc1cccc(O)c1 (stereo not drawn) [Control compound 2, reference compound] | 6.5 | 12 | 76 | 48 |  |  | 
2 | O=C1c2c(c3c4ccc(O)cc4n(C4OC(CO)C(O)C(O)C4O)c3c3[nH]c4cc(O)ccc4c23)C(=O)N1NCc1cccc(O)c1 (stereo not drawn) [Control compound, reference compound] |  |  |  |  | 1900 | 97 | 370
3 | O=C1c2c(c3c4ccc(O)cc4n([C@@H]4O[C@H](CO)[C@@H](O)[C@H](O)[C@H]4O)c3c3[nH]c4cc(O)ccc4c23)C(=O)N1NCc1ccncc1CO [Example 3] | 0.28 | 0.35 | 0.91 | 0.22 | 48 | <12 | <30
4 | O=C1c2c(c3c4ccc(O)cc4n([C@@H]4O[C@H](CO)[C@@H](O)[C@H](O)[C@H]4O)c3c3[nH]c4cc(O)ccc4c23)C(=O)N1NCc1cccc(CO)n1 [Example 15] | 0.5 | 2.1 | 4.3 | 0.62 | 400 | <6 | <90
5 | O=C1c2c(c3c4ccc(O)cc4n([C@@H]4O[C@H](CO)[C@@H](O)[C@H](O)[C@H]4O)c3c3[nH]c4cc(O)ccc4c23)C(=O)N1NCc1sc(CO)cc1CO [Example 16] | 0.4 | 1.3 | 4 | 0.56 |  | <36 | 
6 | O=C1c2c(c3c4ccc(O)cc4n([C@@H]4O[C@H](CO)[C@@H](O)[C@H](O)[C@H]4O)c3c3[nH]c4cc(O)ccc4c23)C(=O)N1NCc1ccsc1CO [Example 18] | 0.43 | 0.66 | 4.6 | 0.3 |  | 16 | 
7 | O=C1c2c(c3c4ccc(O)cc4n([C@@H]4O[C@H](CO)[C@@H](O)[C@H](O)[C@H]4O)c3c3[nH]c4cc(O)ccc4c23)C(=O)N1NCc1sccc1CO [Example 19] | 0.19 | 0.92 | 1.3 | 0.5 |  | <30 | 
8 | O=C1c2c(c3c4ccc(O)cc4n([C@@H]4O[C@H](CO)[C@@H](O)[C@H](O)[C@H]4O)c3c3[nH]c4cc(O)ccc4c23)C(=O)N1NCc1cscc1CO [Example 20] | 0.87 | 0.92 | 1 | 0.67 |  | <30 | 
9 | O=C1c2c(c3c4ccc(O)cc4n([C@@H]4O[C@H](CO)[C@@H](O)[C@H](O)[C@H]4O)c3c3[nH]c4cc(O)ccc4c23)C(=O)N1NCc1ccc(CO)o1 [Example 22] | 0.63 | 1.8 | 1 | 0.58 |  |  | 
10 | O=C1c2c(c3c4ccc(O)cc4n([C@@H]4O[C@H](CO)[C@@H](O)[C@H](O)[C@H]4O)c3c3[nH]c4cc(O)ccc4c23)C(=O)N1NCc1csc(CO)c1 [Example 23] | 0.48 | 1.5 | 8.9 | 2.3 |  | 19 | 
11 | O=C1c2c(c3c4ccc(O)cc4n([C@@H]4O[C@H](CO)[C@@H](O)[C@H](O)[C@H]4O)c3c3[nH]c4cc(O)ccc4c23)C(=O)N1NCc1ccncc1 [Example 24] | 0.48 | 0.71 | 3.3 | 0.27 | 114 | 27 | 12
